Test results from patent US4232035A, “Carbamate pesticidal compounds compositions and methods of use” (priority 1975, dated 1980).

Experiments:
[1] = system: Mexican bean beetle (Epilachna varivestis, Muls.); assay: Mexican Bean Beetle Leaf Spray Test; format: in vivo; set-up: key: A: excellent control; B: partial control; C: no control; settings: 500 parts per million leaf spray; fourth instar larvae; three days
Description: (§1) Suspensions of the test compounds were prepared by dissolving one gram of compound in 50 milliliters of acetone in which had been dissolved 0.1 gram (10 percent of the weight of compound) of an alkylphenoxy polyethoxyethanol surfactant, as an emulsifying or dispersing agent. The resulting solution was mixed into 150 milliliters of water to give roughly 200 milliliters of a suspension containing the compound in finely divided form. The thus-prepared stock suspension contained 0.5 percent by weight of compound. The test concentrations in parts per million by weight employed in the tests described hereinbelow were obtained by appropriate dilutions of the stock suspension with water. The test procedures were as follows:
Fourth instar larvae of the Mexican bean beetle (Epilachna varivestis, Muls.), reared on Tendergreen bean plants at a temperature of 80°±5° F. and 50±5 percent relative humidity, were the test insects.
The test compounds were formulated by diluting the stock suspension with water to give a suspension containing 500 parts of test compound per million parts of final formulation. Potted Tendergreen bean plants of standard height and age were placed on a revolving turntable and sprayed with 100-110 milliliters of test compound formulation by use of a DeVilbiss spray gun set at 10 psig air pressure. This application, which lasted 25 seconds, was sufficient to wet plants to run-off. As a control, 100-110 milliliters of a water-acetone-emulsifier solution containing no test compound were also sprayed on infested plants. When dry, the paired leaves were separated and each was placed in a 9 centimeter Petri dish lined with moistened filter paper. Five randomly selected larvae were introduced into each dish, and the dishes were closed. The closed dishes were labeled and held at a temperature of 80°±5° F. for three days. Although the larvae could easily consume the leaf within 24 to 48 hours, no more food was added. Larvae which were unable to move the length of the body, even upon stimulation, were considered dead.

[2] = system: house flies (Musca domestica, L.); assay: Fly Bait Test; format: in vivo; set-up: key: A: excellent control; B: partial control; C: no control; settings: 500 parts per million bait in sugar solution; twenty four hours
Description: as §1
Four to six day old adult house flies (Musca domestica, L.) reared according to the specifications of the Chemical Specialties Manufacturing Association (Blue Book, McNair-Dorland Co., N.Y. 1954; pages 243-244, 261) under controlled conditions of 80°±5° F. and 50±5 percent relative humidity, were the test insects. The flies were immobilized by anesthetizing with carbon dioxide and twenty five immobilized individuals, males and females, were transferred to a cage consisting of a standard food strainer about five inches in diameter which was inverted over a wrapping-paper-covered surface. The test compounds were formulated by diluting the stock suspension with a 10 percent (by weight) sugar solution to give a suspension containing 500 parts of test compound per million parts of final formulation, by weight. Ten milliliters of the test formulation were added to a souffle cup containing a one-inch square of an absorbent cotton pad. This bait cup was introduced and centered on the blotting paper under the food strainer prior to admitting the anesthetized flies. The caged flies were allowed to feed on the bait for twenty four hours, at a temperature of 80°±5° F. and the relative humidity of 50±5 percent.

Row | SMILES | M. Bean Beetle, pesticidal activity rating [1] | H. Fly, pesticidal activity rating [2]
1 | CN(SSC(C)(C)C)C(=O)ON=C1SCCS1 | A | A
2 | CN(SSC(C)(C)C)C(=O)ON=C1SC(C)(C)C(=O)N1C | A | A
